System: human TLR4
Experiment: TLR4 activation, HEK-Blue hTLR4 SEAP reporter cells
Assay type: cell-based
Conditions: 24 h, SEAP production
Method: The HEK-Blue hTLR4 cells were used for these experiments as previously described. Cells were cultured in complete growth medium: phenol red-free DMEM high glucose medium supplemented with 1 mM sodium pyruvate, 10% heat-inactivated FBS, 50 U/mL penicillin, 50 μg/mL streptomycin, 1X Glutamax, 100 μg/mL Normocin, and 1X HEK-Blue Selection. All stimulation assays were performed on cells that were passaged 3 to 15 times. Cells were carefully rinsed once with ice-cold PBS to remove residual FBS. Then, 2 mL of pre-warmed PBS was added, and dishes were incubated at 37 °C for 5 min to promote cell detachment. Cells were fully detached from plates with gentle tapping, collected, and centrifuged at 52× g for 5 min. […] In another set of experiments, we determined the effects of peptide candidates on the activation of hTLR4 by S100A9. […] Secreted alkaline phosphatase (SEAP) production was measured in each challenged well by transferring 20 μL of medium to a fresh 96-well plate containing 200 μL of Quanti-Blue detection medium. […] The Quanti-Blue plate was developed at 37 °C, 5% CO2, for 3 h followed by OD recordings at 630 nm using the Synergy2 microplate reader and Gen5 software. […]
Figure 6 TLR4 activation by S100A9 and effects of peptide candidates. (A) SEAP production was measured in cell medium following 24 h incubation with indicated concentrations of ligands. […]

S100A9: Recombinant human calcium binding protein S100A9 (C-terminus 8-His tag); known agonist of TLR4, positive control
concentration giving maximum receptor stimulation: 50 nM | EC50 (read-out: half maximal effective concentration (EC50) for TLR4 activation): 0.7 nM

Source: article PMC9599826, “Selecting Multitarget Peptides for Alzheimer’s Disease” (Biomolecules, 2022)
